One test has as its target T1, PI3K p110g (Homo sapiens, UniProt P48736).
T1 construct: purchased Millipore
Kind of test: PI3K p110g kinase assay. Format: biochemical.

For the next test, the target named is T2, PI3K p110a (Homo sapiens, UniProt P42336).
T2 construct: purchased Millipore
Kind of test: PI3K p110a kinase assay. In kind it is biochemical. As to the method: In the assays described here, p110α-p85 complex and p110γ were acquired from Millipore. Assays were performed with Lα-phosphatidylinositol (Avanti) as described in Knight et al. Nat Protoc. […] Inhibitor series were prepared 10% DMSO as 5× stocks for the assay. […] COS-7 cells were cultured in 10 cm dishes and transfected at 70% confluence with 10 μg of plasmid DNA (HA-tagged bovine PI4KIIIβ, HA-tagged human PI4KIIIα) using Lipofectamine 2000 and 5 ml Opti-MEM following the manufacturer's instructions. After 5 hours the transfection medium was replaced with 10 ml complete DMEM. 36 hrs post transfection, cells were washed once with 5 ml PBS (pH 7.4) and lysed in 1 ml of lysis buffer (1) on ice. […] To the lysates was added 200 μl of protein G Sepharose 4 fast flow beads that were prewashed with PBS and lysis buffer and 2 μg of anti-HA antibody. The tubes were then incubated overnight at 4 degrees C. in a tube rotator. […] Kinase reactions were run in a mixture of 45 μL of PI buffer (1 mM PI in kinase buffer), 10 μL of immunoprecipitated beads, 2 µL of inhibitors (dissolved and diluted in DMSO) or DMSO and 5 μL of [γ-^32P]-ATP (1 mM and 2 μCi/tube). […] Samples were counted in a scintillation beta counter after adding 5 ml of Instafluor (Perkin-Elmer). […]

The target in a further test is T3, PI4KIIIB (Bos taurus, UniProt O02810).
T3 construct: made in house; host or cells: COS-7 cells, transient transfection, anti-HA immunoprecipitate on protein G Sepharose beads
T3 sequence (O02810 whole entry): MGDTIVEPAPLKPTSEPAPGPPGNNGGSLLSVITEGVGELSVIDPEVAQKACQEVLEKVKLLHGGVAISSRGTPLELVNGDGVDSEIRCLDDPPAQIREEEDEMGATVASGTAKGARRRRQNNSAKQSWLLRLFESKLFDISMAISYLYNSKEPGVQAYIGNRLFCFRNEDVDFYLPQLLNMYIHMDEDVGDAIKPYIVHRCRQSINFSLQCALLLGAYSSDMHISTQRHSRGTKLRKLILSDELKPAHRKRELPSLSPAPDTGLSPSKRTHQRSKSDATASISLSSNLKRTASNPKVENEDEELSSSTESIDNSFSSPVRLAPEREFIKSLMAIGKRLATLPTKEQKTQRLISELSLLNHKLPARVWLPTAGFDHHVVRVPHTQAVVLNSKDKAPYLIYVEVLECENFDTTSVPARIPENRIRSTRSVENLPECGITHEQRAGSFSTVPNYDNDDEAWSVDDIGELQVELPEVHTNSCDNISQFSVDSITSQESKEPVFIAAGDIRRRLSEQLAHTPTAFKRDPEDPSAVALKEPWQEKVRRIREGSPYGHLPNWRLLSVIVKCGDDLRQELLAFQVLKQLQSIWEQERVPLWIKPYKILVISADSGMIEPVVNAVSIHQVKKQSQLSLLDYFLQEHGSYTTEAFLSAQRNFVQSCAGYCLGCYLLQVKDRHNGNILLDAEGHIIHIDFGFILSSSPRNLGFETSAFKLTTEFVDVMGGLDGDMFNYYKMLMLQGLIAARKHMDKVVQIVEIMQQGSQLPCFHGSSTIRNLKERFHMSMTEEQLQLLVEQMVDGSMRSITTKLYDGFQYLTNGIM
Kind of test: PI4KIIIB kinase assay. In kind it is biochemical, bovine.

The test system of the next test is HCV genotype 2a. Kind of test: microbe, parasite or virus in culture. In kind it is cell-based. Particulars: Hepatitis C virus, Huh7.5, read-out: HCV2a EC50.
Another test has as its system HRV. The test can be described thus: Rhinovirus antiviral assay. The note with it: Human rhinovirus sp. Format: cell-based.

Each structure is given as a SMILES string.

T1 sequence (P48736 whole entry): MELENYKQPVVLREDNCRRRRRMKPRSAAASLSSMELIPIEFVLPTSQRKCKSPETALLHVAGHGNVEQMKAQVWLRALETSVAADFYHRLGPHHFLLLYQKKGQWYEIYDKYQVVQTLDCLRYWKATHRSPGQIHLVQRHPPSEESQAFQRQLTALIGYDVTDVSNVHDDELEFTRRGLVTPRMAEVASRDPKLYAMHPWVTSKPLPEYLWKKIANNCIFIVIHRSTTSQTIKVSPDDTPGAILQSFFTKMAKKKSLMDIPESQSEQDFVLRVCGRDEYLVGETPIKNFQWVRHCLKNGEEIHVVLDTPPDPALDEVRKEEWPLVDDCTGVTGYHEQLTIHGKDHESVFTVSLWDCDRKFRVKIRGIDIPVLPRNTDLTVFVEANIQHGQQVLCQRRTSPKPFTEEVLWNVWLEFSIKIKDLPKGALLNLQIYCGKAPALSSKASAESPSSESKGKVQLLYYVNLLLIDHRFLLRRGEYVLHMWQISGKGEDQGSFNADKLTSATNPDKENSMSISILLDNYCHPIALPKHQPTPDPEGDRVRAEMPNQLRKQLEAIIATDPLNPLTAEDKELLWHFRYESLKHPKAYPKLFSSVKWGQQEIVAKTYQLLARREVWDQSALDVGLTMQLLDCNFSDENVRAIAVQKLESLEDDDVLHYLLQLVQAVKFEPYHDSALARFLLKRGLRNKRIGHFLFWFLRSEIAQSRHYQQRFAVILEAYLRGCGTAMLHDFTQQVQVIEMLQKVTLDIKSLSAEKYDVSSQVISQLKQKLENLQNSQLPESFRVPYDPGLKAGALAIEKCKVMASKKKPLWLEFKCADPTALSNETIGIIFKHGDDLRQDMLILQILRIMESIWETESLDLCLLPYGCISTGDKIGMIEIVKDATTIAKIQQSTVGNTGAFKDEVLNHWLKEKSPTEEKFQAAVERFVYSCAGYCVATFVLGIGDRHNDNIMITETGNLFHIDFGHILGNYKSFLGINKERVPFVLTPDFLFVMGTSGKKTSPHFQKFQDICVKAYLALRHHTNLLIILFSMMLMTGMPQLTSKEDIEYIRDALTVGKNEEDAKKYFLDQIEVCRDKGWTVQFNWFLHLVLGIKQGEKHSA
T2 sequence (P42336 whole entry): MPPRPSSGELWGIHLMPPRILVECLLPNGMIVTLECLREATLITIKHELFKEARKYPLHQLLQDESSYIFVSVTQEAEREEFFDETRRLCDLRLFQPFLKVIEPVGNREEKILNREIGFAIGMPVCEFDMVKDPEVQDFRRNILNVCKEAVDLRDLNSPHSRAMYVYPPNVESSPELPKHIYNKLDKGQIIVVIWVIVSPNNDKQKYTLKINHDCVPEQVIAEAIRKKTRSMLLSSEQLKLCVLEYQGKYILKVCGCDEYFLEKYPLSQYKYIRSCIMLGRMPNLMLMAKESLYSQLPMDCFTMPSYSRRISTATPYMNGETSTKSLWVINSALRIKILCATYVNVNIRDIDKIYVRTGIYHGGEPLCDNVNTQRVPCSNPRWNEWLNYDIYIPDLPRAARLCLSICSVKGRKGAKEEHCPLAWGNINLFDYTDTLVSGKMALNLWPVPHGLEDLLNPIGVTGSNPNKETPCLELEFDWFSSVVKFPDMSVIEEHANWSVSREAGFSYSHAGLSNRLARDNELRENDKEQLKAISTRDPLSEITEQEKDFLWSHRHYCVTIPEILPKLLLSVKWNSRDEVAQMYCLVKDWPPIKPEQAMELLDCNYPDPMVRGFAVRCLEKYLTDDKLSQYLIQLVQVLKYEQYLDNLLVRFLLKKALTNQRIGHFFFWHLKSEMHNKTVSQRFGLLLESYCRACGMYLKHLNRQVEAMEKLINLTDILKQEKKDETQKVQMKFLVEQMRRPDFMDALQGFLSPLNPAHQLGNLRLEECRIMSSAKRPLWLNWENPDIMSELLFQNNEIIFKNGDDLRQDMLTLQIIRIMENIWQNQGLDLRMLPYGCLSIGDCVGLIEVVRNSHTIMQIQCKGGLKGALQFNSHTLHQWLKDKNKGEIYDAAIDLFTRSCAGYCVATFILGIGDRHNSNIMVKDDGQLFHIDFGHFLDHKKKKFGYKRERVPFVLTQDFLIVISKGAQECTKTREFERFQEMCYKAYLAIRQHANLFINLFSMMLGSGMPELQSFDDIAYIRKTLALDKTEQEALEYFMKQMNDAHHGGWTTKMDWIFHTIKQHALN
T2 sequence (P27986 whole entry partner): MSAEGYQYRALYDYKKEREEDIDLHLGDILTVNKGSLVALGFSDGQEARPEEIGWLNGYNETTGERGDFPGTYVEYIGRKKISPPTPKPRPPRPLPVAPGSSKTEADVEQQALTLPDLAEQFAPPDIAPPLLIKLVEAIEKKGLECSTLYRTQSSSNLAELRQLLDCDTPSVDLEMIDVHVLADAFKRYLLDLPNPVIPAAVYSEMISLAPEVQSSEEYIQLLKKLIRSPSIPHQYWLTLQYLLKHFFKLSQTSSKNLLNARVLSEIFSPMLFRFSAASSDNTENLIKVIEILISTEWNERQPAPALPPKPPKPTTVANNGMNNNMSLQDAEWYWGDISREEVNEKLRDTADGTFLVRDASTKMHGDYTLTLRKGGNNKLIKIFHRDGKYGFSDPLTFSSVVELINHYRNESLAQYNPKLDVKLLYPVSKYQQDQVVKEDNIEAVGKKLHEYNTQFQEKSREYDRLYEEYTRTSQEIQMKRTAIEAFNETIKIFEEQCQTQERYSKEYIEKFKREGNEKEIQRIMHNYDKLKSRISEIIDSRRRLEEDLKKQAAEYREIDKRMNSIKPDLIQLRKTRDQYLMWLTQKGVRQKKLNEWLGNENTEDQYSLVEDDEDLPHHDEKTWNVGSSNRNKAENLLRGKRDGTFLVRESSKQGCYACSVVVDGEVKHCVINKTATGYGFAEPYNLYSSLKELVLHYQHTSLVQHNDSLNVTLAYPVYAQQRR

One may read the IC50 as the concentration needed to halve the response being measured. The term EC50 denotes the concentration that produces a half-maximal response. Turning to `COc1ncc(-c2sc(NC(=O)CC3CCOCC3)nc2C)cc1S(=O)(=O)NC1CCCC(O)C1` (centres unmarked) [Compound S-263], the IC50 was 1000 to 10000 nM on PI3K p110g, 1000 to 10000 nM at PI3K p110a and under 100 nM against PI4KIIIB. The values for the half-maximal effective concentration (EC50) in the test with HCV genotype 2a and in the test on HRV were 1 to 100 nM and 1000 to 10000 nM, respectively.

The values above are taken from patent US10428060B2, “PI-kinase inhibitors with anti-infective activity” (The Board of Trustees of the Leland Stanford Junior …, priority 2011, dated 2019).
